Laboratory results: patent US20020137929A1, “1 - (3-heterocyclylphenyl) isothiourea, -isourea, -guanidine and -amidine herbicidal agents” (Intellectual Property Department, BASF Aktiengesellschaft, priority 1998, published 2002)

Tests used:
AMBEL (Ragweed, Common) [1] = experiment: Postemergence herbicidal evaluation; type: in vivo, Ambrosia artemisifolia; details: postemergence
In short: (§1)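 ~2-wk seedlings; postemergence spray, 40 psi; vehicle 1:1 acetone:water + 0.5% Tween 20; rate ≈0.0156–0.500 kg/ha; greenhouse hold; scored 4–5 wk after treatment, 0–9 scale vs control; repeat tests averaged.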

CASOB (Sicklepod) = experiment: Preemergence herbicidal evaluation; type: in vivo, Cassia obtusifolia; details: rated 4-5 weeks after treatment
In short: (§2)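 Test compound, dissolved in aqueous acetone, was sprayed over planted soil cups at an equivalent of about 0.0156 to 0.500 kg/ha; seeds had been mixed with potting soil. Greenhouse growth followed, with visual 0-9 scoring of injury at four to five weeks.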

AMBEL (Ragweed, Common) [2] = experiment: Preemergence herbicidal evaluation; type: in vivo, Ambrosia artemisifolia; details: rated 4-5 weeks after treatment
In short: as §2

CYPSE (Flatsedge) = experiment: Preemergence weed control under flooded paddy conditions; type: in vivo, Cyperus serotinus; details: rated 3-4 weeks after treatment
In short: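 Visual injury scored 0-9 against control three to four weeks post-treatment, greenhouse-grown. Application: acetone/water (50/50) solutions dosed directly into flood water (1.5-3 cm over silt loam, planted top 0.5 cm), roughly 0.0313 to 0.500 kg/ha active ingredient.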

ABUTH (Velvetleaf) = experiment: Postemergence herbicidal evaluation; type: in vivo, Abutilon theophrasti; details: postemergence
In short: as §1

ORYSAT (Rice, Tebonnet) = experiment: Postemergence herbicidal evaluation; type: in vivo, Oryza sativa, (L.) Tebonnet; details: postemergence
In short: as §1

[3] = system: CHEAL (Lambsquarters, Common); experiment: Postemergence herbicidal evaluation; type: in vivo, Chenopodium album; details: postemergence
In short: as §1

GALAP (Galium) = experiment: Preemergence herbicidal evaluation; type: in vivo, Galium aparine; details: rated 4-5 weeks after treatment
In short: as §2

ECHCG (Barnyardgrass) = experiment: Postemergence herbicidal evaluation; type: in vivo, Echinochloa crus-galli; details: postemergence
In short: as §1

ZEAMX (Corn, Field) = experiment: Postemergence herbicidal evaluation; type: in vivo, Zea mays; details: postemergence
In short: as §1

[4] = system: CHEAL (Lambsquarters, Common); experiment: Preemergence herbicidal evaluation; type: in vivo, Chenopodium album; details: rated 4-5 weeks after treatment
In short: as §2

[5] = system: GLXMAW (Soybean, Williams); experiment: Postemergence herbicidal evaluation; type: in vivo, Glycine max, (L.) Merr. cv Williams; details: postemergence
In short: as §1

[6] = rate 0.1250 kg/ha, rating scale 0-9
[7] = rate 0.2500 kg/ha, rating scale 0-9

COCCOC(=O)CN1C(=O)CSC1=Nc1cc(-n2c(=O)cc(C(F)(F)F)n(C)c2=O)c(F)cc1Cl [Compound 107, 2-Methoxyethyl 2-{{2-chloro-5-[3,6-dihydro-3-methyl-2,6-dioxo-4-(trifluoromethyl)-1(2H)-pyrimidinyl]-4-fluorophenyl}imino}-4-oxo-3-thiazolidineacetate]
herbicidal rating AMBEL (AMBEL (Ragweed, Common) [1]; rate 0.0158 kg/ha): 2.0
herbicidal rating AMBEL (AMBEL (Ragweed, Common) [1]; rate 0.0315 kg/ha): 2.0
herbicidal rating AMBEL (AMBEL (Ragweed, Common) [1]; rate 0.0630 kg/ha): 2.0
Preemergence herbicidal rating CASOB (CASOB (Sicklepod); rate 0.0313 kg/ha): 0.0
Preemergence herbicidal rating CASOB (CASOB (Sicklepod); rate 0.0625 kg/ha): 0.0
Preemergence herbicidal rating CASOB (CASOB (Sicklepod); rate 0.1250 kg/ha): 0.0
Preemergence herbicidal rating CASOB (CASOB (Sicklepod); rate 0.2500 kg/ha): 1.0
Preemergence herbicidal rating AMBEL (AMBEL (Ragweed, Common) [2]; rate 0.0313 kg/ha): 0.0
Preemergence herbicidal rating AMBEL (AMBEL (Ragweed, Common) [2]; rate 0.0625 kg/ha): 0.0
Preemergence herbicidal rating AMBEL (AMBEL (Ragweed, Common) [2]; rate 0.1250 kg/ha): 0.0
Preemergence herbicidal rating AMBEL (AMBEL (Ragweed, Common) [2]; rate 0.2500 kg/ha): 2.0
CYPSE herbicidal effect rating (CYPSE (Flatsedge); 0.0313 kg/ha): 0.0
CYPSE herbicidal effect rating (CYPSE (Flatsedge); 0.0625 kg/ha): 0.0
CYPSE herbicidal effect rating (CYPSE (Flatsedge); 0.1250 kg/ha): 0.0
herbicidal rating ABUTH (ABUTH (Velvetleaf); rate 0.0158 kg/ha): 9.0
herbicidal rating ABUTH (ABUTH (Velvetleaf); rate 0.0315 kg/ha): 7.0
herbicidal rating ABUTH (ABUTH (Velvetleaf); rate 0.0630 kg/ha): 9.0
herbicidal rating ORYSAT (ORYSAT (Rice, Tebonnet); rate 0.0158 kg/ha): 2.0
herbicidal rating ORYSAT (ORYSAT (Rice, Tebonnet); rate 0.0315 kg/ha): 2.0
herbicidal rating ORYSAT (ORYSAT (Rice, Tebonnet); rate 0.0630 kg/ha): 4.5
herbicidal rating CHEAL ([3]; rate 0.0158 kg/ha): 2.0
herbicidal rating CHEAL ([3]; rate 0.0315 kg/ha): 2.0
herbicidal rating CHEAL ([3]; rate 0.0630 kg/ha): 1.0
Preemergence herbicidal rating GALAP (GALAP (Galium); rate 0.0313 kg/ha): 1.0
Preemergence herbicidal rating GALAP (GALAP (Galium); rate 0.0625 kg/ha): 1.0
Preemergence herbicidal rating GALAP (GALAP (Galium); rate 0.1250 kg/ha): 7.0
Preemergence herbicidal rating GALAP (GALAP (Galium); rate 0.2500 kg/ha): 7.0
herbicidal rating ECHCG (ECHCG (Barnyardgrass); rate 0.0158 kg/ha): 1.0
herbicidal rating ECHCG (ECHCG (Barnyardgrass); rate 0.0315 kg/ha): 1.0
herbicidal rating ECHCG (ECHCG (Barnyardgrass); rate 0.0630 kg/ha): 3.0
herbicidal rating ZEAMX (ZEAMX (Corn, Field); rate 0.0158 kg/ha): 4.0
herbicidal rating ZEAMX (ZEAMX (Corn, Field); rate 0.0315 kg/ha): 6.0
herbicidal rating ZEAMX (ZEAMX (Corn, Field); rate 0.0630 kg/ha): 7.0
Preemergence herbicidal rating CHEAL ([4]; rate 0.0625 kg/ha): 6.0
Preemergence herbicidal rating CHEAL ([4]; rate 0.1250 kg/ha): 9.0
Preemergence herbicidal rating CHEAL ([4]; rate 0.2500 kg/ha): 9.0
herbicidal rating GLXMAW ([5]; rate 0.0158 kg/ha): 4.5
herbicidal rating GLXMAW ([5]; rate 0.0315 kg/ha): 5.0
herbicidal rating GLXMAW ([5]; rate 0.0630 kg/ha): 5.5

COC(=O)CSCCN1C(=O)CSC1=Nc1cc(-n2c(=O)cc(C(F)(F)F)n(C)c2=O)c(F)cc1Cl [Compound 158, Methyl {{2-{2-{{2-chloro-5-[3,6-dihydro-3-methyl-2,6-dioxo-4-(trifluoromethyl)-1(2H)-pyrimidinyl]-4-fluorophenyl}imino}-4-oxo-3-thiazolidinyl}ethyl}-thio}acetate]
herbicidal rating AMBEL (AMBEL (Ragweed, Common) [1]; rate 0.0156 kg/ha): 6.0
herbicidal rating AMBEL (AMBEL (Ragweed, Common) [1]; rate 0.0313 kg/ha): 7.0
herbicidal rating AMBEL (AMBEL (Ragweed, Common) [1]; rate 0.0625 kg/ha): 9.0
Preemergence herbicidal rating CASOB (CASOB (Sicklepod); 0.0156 kg/ha): 1.0
Preemergence herbicidal rating CASOB (CASOB (Sicklepod); 0.0313 kg/ha): 3.0
Preemergence herbicidal rating CASOB (CASOB (Sicklepod); 0.0625 kg/ha): 4.0
Preemergence herbicidal rating CASOB (CASOB (Sicklepod); [6]): 9.0
Preemergence herbicidal rating CASOB (CASOB (Sicklepod); [7]): 5.0
Preemergence herbicidal rating AMBEL (AMBEL (Ragweed, Common) [2]; 0.0156 kg/ha): 1.0
Preemergence herbicidal rating AMBEL (AMBEL (Ragweed, Common) [2]; 0.0313 kg/ha): 3.0
Preemergence herbicidal rating AMBEL (AMBEL (Ragweed, Common) [2]; 0.0625 kg/ha): 7.0
Preemergence herbicidal rating AMBEL (AMBEL (Ragweed, Common) [2]; [6]): 9.0
Preemergence herbicidal rating AMBEL (AMBEL (Ragweed, Common) [2]; [7]): 9.0
herbicidal effect rating, CYPSE (CYPSE (Flatsedge); 0.0313 kg/ha): 5.0
herbicidal effect rating, CYPSE (CYPSE (Flatsedge); 0.0625 kg/ha): 9.0
herbicidal effect rating, CYPSE (CYPSE (Flatsedge); 0.1250 kg/ha): 9.0
herbicidal effect rating, CYPSE (CYPSE (Flatsedge); 0.2500 kg/ha): 9.0
herbicidal rating ABUTH (ABUTH (Velvetleaf); rate 0.0156 kg/ha): 9.0
herbicidal rating ABUTH (ABUTH (Velvetleaf); rate 0.0313 kg/ha): 9.0
herbicidal rating ABUTH (ABUTH (Velvetleaf); rate 0.0625 kg/ha): 9.0
herbicidal rating ORYSAT (ORYSAT (Rice, Tebonnet); rate 0.0156 kg/ha): 2.0
herbicidal rating ORYSAT (ORYSAT (Rice, Tebonnet); rate 0.0313 kg/ha): 2.5
herbicidal rating ORYSAT (ORYSAT (Rice, Tebonnet); rate 0.0625 kg/ha): 3.5
herbicidal rating CHEAL ([3]; rate 0.0156 kg/ha): 6.0
herbicidal rating CHEAL ([3]; rate 0.0313 kg/ha): 7.0
herbicidal rating CHEAL ([3]; rate 0.0625 kg/ha): 9.0
Preemergence herbicidal rating GALAP (GALAP (Galium); 0.0156 kg/ha): 0.0
Preemergence herbicidal rating GALAP (GALAP (Galium); 0.0313 kg/ha): 0.0
Preemergence herbicidal rating GALAP (GALAP (Galium); 0.0625 kg/ha): 5.0
Preemergence herbicidal rating GALAP (GALAP (Galium); [6]): 7.0
Preemergence herbicidal rating GALAP (GALAP (Galium); [7]): 6.0
herbicidal rating ECHCG (ECHCG (Barnyardgrass); rate 0.0156 kg/ha): 2.0
herbicidal rating ECHCG (ECHCG (Barnyardgrass); rate 0.0313 kg/ha): 2.0
herbicidal rating ECHCG (ECHCG (Barnyardgrass); rate 0.0625 kg/ha): 3.0
herbicidal rating ZEAMX (ZEAMX (Corn, Field); rate 0.0156 kg/ha): 4.0
herbicidal rating ZEAMX (ZEAMX (Corn, Field); rate 0.0313 kg/ha): 4.5
herbicidal rating ZEAMX (ZEAMX (Corn, Field); rate 0.0625 kg/ha): 5.5
Preemergence herbicidal rating CHEAL ([4]; 0.0156 kg/ha): 9.0
Preemergence herbicidal rating CHEAL ([4]; 0.0313 kg/ha): 9.0
Preemergence herbicidal rating CHEAL ([4]; 0.0625 kg/ha): 9.0
Preemergence herbicidal rating CHEAL [4, 6]: 9.0
Preemergence herbicidal rating CHEAL [4, 7]: 9.0
herbicidal rating GLXMAW ([5]; rate 0.0156 kg/ha): 5.0
herbicidal rating GLXMAW ([5]; rate 0.0313 kg/ha): 5.0
herbicidal rating GLXMAW ([5]; rate 0.0625 kg/ha): 7.0
